# Measured values as given in patent US20240417370A1, “LIPIDS FOR USE IN LIPID NANOPARTICLE FORMULATIONS” (Acuitas Therapeutics, Inc., priority 2023, published 2024).
# Test system: human IgG in mouse serum
# Experiment: Immunoglobulin G (IgG) mRNA in vivo evaluation using lipid nanoparticle compositions
# Design: species or system mice
# Conditions: LNP-formulated lipid, tail vein injection, μg IgG/mL serum 24 hours after administration; for Serum IgG @ 0.3 mg/kg: 0.3 mg mRNA/kg; for Serum IgG @ 1.0 mg/kg: 1.0 mg mRNA/kg
# Protocol: A lipid of structure (I), DSPC, cholesterol and PEG-lipid are solubilized in ethanol at a molar ratio of 50:10:38.5:1.5 or 47.5:10:40.7:1.8. Lipid nanoparticles (LNP) are prepared at a total lipid to mRNA weight ratio of approximately 10:1 to 40:1. Briefly, the mRNA is diluted to 0.2 mg/mL in 10 to 50 mM citrate buffer, pH 4 to 6 or 10 to 25 mM acetate buffer, pH 4 to 6. Syringe pumps are used to mix the ethanolic lipid solution with the mRNA aqueous solution at a ratio of about 1:5 to 1:3 (vol/vol) with total flow rates above 15 mL/min. The ethanol is then removed, and the external buffer replaced with PBS by dialysis. Finally, the lipid nanoparticles are filtered through a 0.2 µm pore sterile filter.
# Studies are performed in 6-8-week-old CD-1/ICR mice (Envigo, Charles River, or Inotiv) according to guidelines established by an institutional animal care committee (ACC) and the Canadian Council on Animal Care (CCAC). Varying doses of mRNA-lipid nanoparticle are systemically administered by tail vein injection and animals euthanized at a specific time point (e.g., 24 hours) post-administration. The whole blood is collected, and the serum subsequentially separated by centrifuging the tubes of the whole blood at 2000×g for 10 minutes at 4° C. and stored at −80° C. until use for analysis.
# For immunoglobulin G (IgG) ELISA (Life Diagnostics Human IgG ELISA kit), the serum samples are diluted at 100 to 20,000 folds with 1× diluent solution. 100 μL of diluted serum is dispensed into anti-human IgG coated 96-well plate in duplicate alongside human IgG standards and incubated in a plate shaker at 150 rpm at 25° C. for 45 minutes. The wells are washed 5 times with 1× wash solution using a plate washer (400 μL/well). 100 μL of HRP conjugate is added into each well and incubated in a plate shaker at the same condition above. The wells are washed 5 times again with 1× wash solution using a plate washer (400 μL/well). 100 μL of TMB reagent is added into each well and incubated in a plate shaker at the same condition above. The reaction is stopped by adding 100 μL of Stop solution to each well. The absorbance is read at 450 nm (A450) with a microplate reader. The amount of human IgG in mouse serum is determined by plotting A450 values for the assay standard against human IgG concentration.
# Representative compounds of the disclosure shown in Table 2 were formulated using the following molar ratio: 50% cationic lipid/10% distearoylphosphatidylcholine (DSPC)/38.5% Cholesterol/1.5% PEG lipid 2-[2-(ω-methoxy(polyethyleneglycol2000)ethoxy]-N,N-ditetradecylacetamide) or 47.5% cationic lipid/10% DSPC/40.7% Cholesterol/1.8% PEG lipid. Relative activity was determined by measuring luciferase expression in the liver 4 hours following administration via tail vein injection as described in Example 1 or by measuring the amount of human IgG in mouse serum as described in example 2. The activity was compared at a dose of 1.0 or 0.5 or 0.3 mg mRNA/kg and expressed as ng luciferase/g liver measured 4 hours after administration, as described in Example 1 or as μg IgG/mL serum measured 24 hours after administration, as described in Example 2. Compound numbers in Table 2 refer to the compound numbers of Table 1.
SMILES,Serum IgG @ 0.3 mg/kg,Serum IgG @ 1.0 mg/kg
"CCCCCCCCC(CCCCCCCC)N(CCCC)C(=O)CCCCCCCN(CCCCCCCC(=O)N(CCCC)C(CCCCCCCC)CCCCCCCC)[C@H]1CC[C@@H](O)CC1 [(1S, 4S) I-54, 8,8′-(((1s,4s)-4-hydroxycyclohexyl)azanediyl)bis(N-butyl-N-(heptadecan-9-yl)octanamide)]",43.22 ± 12.97 µg/mL,
"CCCCCCCCCCN(CCCCCCCCCC)C(=O)CCCCCCCN(CCCCCCCC(=O)N(CCCCCCCCCC)CCCCCCCCCC)[C@@H]1CCC[C@H]1O [(1R, 2R) I-48, 8,8′-(((1r,2r)-2-hydroxycyclopentyl)azanediyl)bis(N,N-didecyloctanamide)]",25.27 ± 7.50 µg/mL,92.5 ± 20.18 µg/mL
"CCCCCCCCCCN(CCCCCCCCCC)C(=O)CCCCCCCCCN(CCCCCCCCCC(=O)N(CCCCCCCCCC)CCCCCCCCCC)[C@H]1CC[C@@H](O)CC1 [(1S, 4S) I-60, 10,10′-(((1s,4s)-4-hydroxycyclohexyl)azanediyl)bis(N,N-didecyldecanamide)]",15.65 ± 5.31 µg/mL,
"CCCCCCCCCCN(CCCCCCCCCC)C(=O)CCCCCCCN(CCCCCCCC(=O)N(CCCCCCCCCC)CCCCCCCCCC)[C@@H]1CCC[C@@H]1O [(1R, 2S) I-48, 8,8′-(((1r,2s)-2-hydroxycyclopentyl)azanediyl)bis(N,N-didecyloctanamide)]",28.32 ± 8.81 µg/mL,
"CCCCCCCCCCN(CCCCCCCCCC)C(=O)CCCCCCCN(CCCCCCCC(=O)N(CCCCCCCCCC)CCCCCCCCCC)[C@H]1C[C@H](CO)C1 [(1R, 3R) I-24, 8,8′-(((1R,3R)-3-(hydroxymethyl)cyclobutyl)azanediyl)bis(N,N-didecyloctanamide)]",6.93 ± 2.48 µg/mL,19.77 ± 5.43 µg/mL
"CCCCCCCCCCN(CCCCCCCCCC)C(=O)C(F)CCCCCCN(CCCCCCC(F)C(=O)N(CCCCCCCCCC)CCCCCCCCCC)[C@H]1CC[C@H](O)CC1 (stereo partly drawn) [(1R, 4R) I-49, 8,8′-(((1r,4r)-4-hydroxycyclohexyl)azanediyl)bis(N,N-didecyl-2-fluorooctanamide)]",28.94 ± 13.21 µg/mL,161.09 ± 11.20 µg/mL
"CCCCCCCCCCN(CCCCCCCCCC)C(=O)CCCCCCCN(CCCCCCCC(=O)N(CCCCCCCCCC)CCCCCCCCCC)C1CCCC1O (racemic) [(rac)-(1RS, 2SR) I-48, 8,8′-(((1s,2r)-2-hydroxycyclopentyl)azanediyl)bis(N,N-didecyloctanamide)]",43.32 ± 11.04 µg/mL,161.75 ± 26.50 µg/mL
"CCCCCCCCCCN(CCCCCCCCN(CCCCCCCC(=O)N(CCCCCCCCCC)CCCCCCCCCC)[C@H]1CC[C@H](O)CC1)C(=O)CCCCCCCCC [(1R, 4R) I-47, N-decyl-N-(8-((8-(didecylamino)-8-oxooctyl)((1r,4r)-4-hydroxycyclohexyl)amino)octyl)decanamide]",16.24 ± 2.93 µg/mL,
"C=CCCCCCCCCN(CCCCCCCCC=C)C(=O)CCCCCCCN(CCCCCCCC(=O)N(CCCCCCCCCC)CCCCCCCCCC)[C@H]1CC[C@@H](O)CC1 [(1S, 4S) I-57, N,N-di(dec-9-en-1-yl)-8-((8-(didecylamino)-8-oxooctyl)((1s,4s)-4-hydroxycyclohexyl)amino)octanamide]",84.4 ± 35.10 µg/mL,
"CCCCCCCCCCN(CCCCCCCCN(CCCCCCCCN(CCCCCCCCCC)C(=O)CCCCCCCCC)[C@H]1CC[C@@H](O)CC1)C(=O)CCCCCCCCC [(1S, 4S) I-63, N,N′-((((1s,4s)-4-hydroxycyclohexyl)azanediyl)bis(octane-8,1-diyl))bis(N-decyldecanamide)]",39.32 ± 8.99 µg/mL,
"CCCCCCCCCCN(CCCCCCCCCC)C(=O)CCCCCCCN(CCCCCCCC(=O)N(CCCCCCCCCC)CCCCCCCCCC)C1CCC[C@H]1O (mixture of isomers) [(rac)-(1RS, 2RS) I-48, 8,8′-(((1s,2s)-2-hydroxycyclopentyl)azanediyl)bis(N,N-didecyloctanamide)]",32.85 ± 6.90 µg/mL,216.8 ± 46.48 µg/mL
"CCCCCCCCCCN(CCCCCCCCCC)C(=O)CCCCCCCN(CCCCCCCC(=O)N(CCCCCCCCCC)CCCCCCCCCC)[C@H]1CC[C@@](C)(O)CC1 [(1S, 4S) I-25, 8,8′-(((1S,4S)-4-hydroxy-4-methylcyclohexyl)azanediyl)bis(N,N-didecyloctanamide)]",39.96 ± 10.72 µg/mL,194.38 ± 27.83 µg/mL
"CCCCCCCCCCN(CCCCCCCCCC)C(=O)CCCCCCCN(CCCCCCCC(=O)N(CCCCCCCCCC)CCCCCCCCCC)[C@H]1CCCC[C@H]1O [(1S, 2R) I-16, 8,8′-(((1S,2R)-2-hydroxycyclohexyl)azanediyl)bis(N,N-didecyloctanamide)]",19.42 ± 7.21 µg/mL,88.40 ± 26.36 µg/mL
"CCCCCCCCCCCCN(CCCCCCCC)C(=O)CCCCCCCN(CCCCCCCC(=O)N(CCCCCCCCCC)CCCCCCCCCC)[C@H]1CC[C@@H](O)CC1 [(1S, 4S) I-55, N,N-didecyl-8-((8-(dodecyl(octyl)amino)-8-oxooctyl)((1s,4s)-4-hydroxycyclohexyl)amino)octanamide]",72.2 ± 14.87 µg/mL,
"CCCCCCCCCCN(CCCCCCCCCC)C(=O)CCCCCCCN(CCCCCCCC(=O)N(CCCCCCCCCC)CCCCCCCCCC)C[C@H]1C[C@H]1CO (racemic) [(rac)-(1RS, 2SR) I-45, 8,8′-((((1s,2r)-2-(hydroxymethyl)cyclopropyl)methyl)azanediyl)bis(N,N-didecyloctanamide)]",15.84 ± 3.20 µg/mL,
"CCCCCCCCCCN(CCCCCCCCCC)C(=O)C(F)CCCCCCN(CCCCCCC(F)C(=O)N(CCCCCCCCCC)CCCCCCCCCC)CC[C@H]1C[C@@H](O)C1 (stereo partly drawn) [(1S, 3R) I-19, 8,8′-((2-((1S,3R)-3-hydroxycyclobutyl)ethyl)azanediyl)bis(N,N-didecyl-2-fluorooctanamide)]",30.68 ± 8.05 µg/mL,267.70 ± 45.90 µg/mL
"CCCCCCCCCCN(CCCCCCCCCC)C(=O)CCCCCCCN(CCCCCCCC(=O)N(CCCCCCCCCC)CCCCCCCCCC)[C@H]1C[C@H](O)C1 [(1R, 3R) I-5, 8,8′-(((1R,3R)-3-hydroxycyclobutyl)azanediyl)bis(N,N-didecyloctanamide)]",44.52 ± 9.89 µg/mL,215.61 ± 28.80 µg/mL
"CCCCCCCCCCN(CCCCCCCCCC)C(=O)CCCCCCCN(CCCCCCCC(=O)N(CCCCCCCCCC)CCCCCCCCCC)[C@H]1C[C@@H](CO)C1 [(1S, 3S) I-24, 8,8′-(((1S,3S)-3-(hydroxymethyl)cyclobutyl)azanediyl)bis(N,N-didecyloctanamide)]",20.09 ± 5.90 µg/mL,57.71 ± 10.58 µg/mL
"CCCCCCCCCCN(CCCCCCCCN(CCCCCCCC(=O)N(CCCCCCCCCC)CCCCCCCCCC)[C@H]1CC[C@@H](O)CC1)C(=O)CCCCCCCCC [(1S, 4S) I-47, N-decyl-N-(8-((8-(didecylamino)-8-oxooctyl)((1s,4s)-4-hydroxycyclohexyl)amino)octyl)decanamide]",55.53 ± 11.50 µg/mL,158.59 ± 40.38 µg/mL
"CCCCCCCCCCN(CCCCCCCCCC)C(=O)CCCCCCCN(CCCCCCCC(=O)N(CCCCCCCCCC)CCCCCCCCCC)[C@H]1CC[C@@H](O)CC1 [(1S, 4S) I-9, 8,8′-(((1s,4s)-4-hydroxycyclohexyl)azanediyl)bis(N,N-didecyloctanamide)]",97.57 ± 19.26 µg/mL,257.42 ± 91.86 µg/mL
